Patent US20250280696A1, “FORMULATIONS AND USES THEREOF IN OPTOELECTRONIC FIELD” (Zhejiang Brilliant Optoelectronic Technology Co.,Ltd., priority 2022, published 2025)

Assays:
Type in all cases: physicochemical
[1] = Solubility of compounds in toluene; conditions: per 100 g toluene
Protocol: The solubility of the compounds in the toluene were determined as follows: • 1. 1000 mg toluene was placed in the transparent glass sample bottle. • 2. A certain mass of the compound was added into the toluene, and oscillated until completely dissolved. • 3. After the compound was completely dissolved, a certain mass of the compound was further added into the toluene, and oscillated. • 4. The above steps were repeated until the compound wasn't dissolved any more. • 5. The total mass of the compound added was recorded and the solubility was obtained by calculation.

[2] = Absorption spectrum, emission spectrum and extinction coefficient in toluene solution; conditions: for Molar extinction coefficient of the toluene solution: at maximum absorption peak
Protocol: The extinction coefficients of the compounds and their absorption and emission spectrums in the solution were determined as follows: • 1. The compound with a certain amount of substance concentration in the toluene was prepared in a volumetric flask. • 2. The absorption spectrum of the solution was measured by using an ultraviolet-visible spectrophotometer (Puxi T9s) to obtain the absorption peak wavelength. • 3. The absorbance of the maximum absorption peak divided by the amount of substance concentration is the molar extinction coefficient of the compound. • 4. The emission spectrum of the solution was measured by using a fluorescent spectroscope (Hitachi, F-4700 FL Spectrophotometer) to obtain the emission peak wavelength.
(§1) The extinction coefficients of the compounds and their absorption and emission peaks in the solution and film are shown in Table 3.

[3] = Absorption and emission spectrum in spin-coated film; conditions: for Red shift of the spectrum in the film relative to the solution: film vs toluene solution; for Absorption peak of the film / Emission peak of the film: spin-coated film on glass
Protocol: The Absorption and emission spectrums of the compounds in the film were determined as follows: • 1. The compound with a certain concentration in the toluene was prepared. • 2. The prepared toluene solution was dropped onto a clean glass substrate. • 3. Spin-coating, and then heating at the 80° C. for 1 min. • 4. The absorption spectrum of the film was measured by using an ultraviolet-visible spectrophotometer (Puxi T9s) to obtain the absorption peak wavelength. • 5. The emission spectrum of the film was measured by using a fluorescent spectroscope (Hitachi, F-4700 FL Spectrophotometer) to obtain the emission peak wavelength.
as §1

[4] = UV stability of compounds in toluene (absorbance decay, t80); conditions: for Times t80: UV LEDs 365 nm & 255 nm, 12 cm, time until absorbance decayed to 80% of initial value; for UV stability compared with the unfluorinated compound 20: UV irradiation
Protocol: The UV stability of the compounds were tested as follows:
The compound was dissolved in the toluene with a concentration of 1×10^5 mol/L. 3 mL solution was added to the cuvette with a lid and the lid was screwed on tightly, then the cuvette was placed in the ultraviolet-visible spectrophotometer to test the absorption spectrum, the absorbance of the maximum absorption peak was recorded as the initial value. The cuvette was placed at a distance of 12 cm from the UV LEDs (365 nm & 255 nm), irradiated for a period and tested its absorption spectrum, then continued to be irradiated after the test, and repeated until the absorbance decayed to 80% of its initial value, the time was recorded as t80.

SMILES	Solubilities(/100 g toluene) [1]	Molar extinction coefficient of the toluene solution [2]	Red shift of the spectrum in the film relative to the solution [3]	other results
Cc1cccc(C)c1N(c1ccc(C(C)(C)C)cc1)c1cc(N(c2ccc(C(C)(C)C)cc2)c2c(C)cccc2C)c2ccc3c(N(c4ccc(C(C)(C)C)cc4)c4c(C)cccc4C)cc(N(c4ccc(C(C)(C)C)cc4)c4c(C)cccc4C)c4ccc1c2c43 [Compound 4]	4.2 g	30000 L/mol	very small red shift	Times t80 [4]: 195 min
Cc1cccc(C)c1N(c1cc(C(C)(C)C)cc(C(C)(C)C)c1)c1cc(N(c2cc(C(C)(C)C)cc(C(C)(C)C)c2)c2c(C)cccc2C)c2ccc3c(N(c4cc(C(C)(C)C)cc(C(C)(C)C)c4)c4c(C)cccc4C)cc(N(c4cc(C(C)(C)C)cc(C(C)(C)C)c4)c4c(C)cccc4C)c4ccc1c2c43 [Compound 7]	4.6 g	56000 L/mol	very small red shift	Times t80 [4]: 280 min
CC(C)c1cccc(C(C)C)c1N(c1ccc(C(C)(C)C)cc1)c1cc(N(c2ccc(C(C)(C)C)cc2)c2c(C(C)C)cccc2C(C)C)c2ccc3c(N(c4ccc(C(C)(C)C)cc4)c4c(C(C)C)cccc4C(C)C)cc(N(c4ccc(C(C)(C)C)cc4)c4c(C(C)C)cccc4C(C)C)c4ccc1c2c43 [Compound 8]	>20 g	–	–	–
CC(C)c1cccc(C(C)C)c1N(c1cc(C(C)(C)C)cc(C(C)(C)C)c1)c1cc(N(c2cc(C(C)(C)C)cc(C(C)(C)C)c2)c2c(C(C)C)cccc2C(C)C)c2ccc3c(N(c4cc(C(C)(C)C)cc(C(C)(C)C)c4)c4c(C(C)C)cccc4C(C)C)cc(N(c4cc(C(C)(C)C)cc(C(C)(C)C)c4)c4c(C(C)C)cccc4C(C)C)c4ccc1c2c43 [Compound 9]	>20 g	–	–	–
CCc1cccc(CC)c1N(c1ccc(C(C)(C)C)cc1)c1cc(N(c2ccc(C(C)(C)C)cc2)c2c(CC)cccc2CC)c2ccc3c(N(c4ccc(C(C)(C)C)cc4)c4c(CC)cccc4CC)cc(N(c4ccc(C(C)(C)C)cc4)c4c(CC)cccc4CC)c4ccc1c2c43 [Compound 11]	25.9 g	53000 L/mol	very small red shift	Times t80 [4]: 257 min
Cc1ccccc1N(c1ccc(C(C)(C)C)cc1C)c1cc(N(c2ccccc2C)c2ccc(C(C)(C)C)cc2C)c2ccc3c(N(c4ccccc4C)c4ccc(C(C)(C)C)cc4C)cc(N(c4ccccc4C)c4ccc(C(C)(C)C)cc4C)c4ccc1c2c43 [Compound 12]	>3 g	–	–	–
Cc1cc2ccccc2cc1N(c1ccc(C(C)(C)C)cc1)c1cc(N(c2ccc(C(C)(C)C)cc2)c2cc3ccccc3cc2C)c2ccc3c(N(c4ccc(C(C)(C)C)cc4)c4cc5ccccc5cc4C)cc(N(c4ccc(C(C)(C)C)cc4)c4cc5ccccc5cc4C)c4ccc1c2c43 [Compound 13]	>2.5 g	–	–	–
Cc1cc2ccccc2c(C)c1N(c1ccc(C(C)(C)C)cc1)c1cc(N(c2ccc(C(C)(C)C)cc2)c2c(C)cc3ccccc3c2C)c2ccc3c(N(c4ccc(C(C)(C)C)cc4)c4c(C)cc5ccccc5c4C)cc(N(c4ccc(C(C)(C)C)cc4)c4c(C)cc5ccccc5c4C)c4ccc1c2c43 [Compound 14]	>2 g	–	–	–
Cc1cccc(C)c1N(c1ccc(C(F)(F)F)cc1)c1cc(N(c2ccc(C(F)(F)F)cc2)c2c(C)cccc2C)c2ccc3c(N(c4ccc(C(F)(F)F)cc4)c4c(C)cccc4C)cc(N(c4ccc(C(F)(F)F)cc4)c4c(C)cccc4C)c4ccc1c2c43 [Compound 15]	>4 g	–	–	–
Fc1ccc(N(c2ccccc2)c2cc(N(c3ccccc3)c3ccc(F)cc3)c3ccc4c(N(c5ccccc5)c5ccc(F)cc5)cc(N(c5ccccc5)c5ccc(F)cc5)c5ccc2c3c54)cc1 [Compound 16]	>1.5 g	37000 L/mol	large red shift	Absorption peak of the toluene solution [2]: 466 nm; Emission peak of the toluene solution [2]: 493 nm; Absorption peak of the film [3]: 469 nm; Emission peak of the film [3]: 551 nm; Times t80 [4]: 227 min; UV stability compared with the unfluorinated compound 20 [4]: greatly improved
Fc1cccc(F)c1N(c1ccccc1)c1cc(N(c2ccccc2)c2c(F)cccc2F)c2ccc3c(N(c4ccccc4)c4c(F)cccc4F)cc(N(c4ccccc4)c4c(F)cccc4F)c4ccc1c2c43 [Compound 17]	>1 g	18000 L/mol	large red shift	Absorption peak of the toluene solution [2]: 439 nm; Emission peak of the toluene solution [2]: 462 nm; Absorption peak of the film [3]: 445 nm; Emission peak of the film [3]: 496 nm; UV stability compared with the unfluorinated compound 20 [4]: greatly improved
Cc1cccc(C)c1N(c1nc(-c2ccccc2)nc(-c2ccccc2)n1)c1cc(C(C)C)c2ccc3c(N(c4nc(-c5ccccc5)nc(-c5ccccc5)n4)c4c(C)cccc4C)cc(C(C)C)c4ccc1c2c43 [Compound 18]	>1 g	–	–	–
Cc1cccc(C)c1N(c1ncc2ccccc2n1)c1cc(C(C)C)c2ccc3c(N(c4ncc5ccccc5n4)c4c(C)cccc4C)cc(C(C)C)c4ccc1c2c43 [Compound 19]	>1 g	–	–	–
CC(C)(C)c1ccc(N(c2ccccc2)c2cc(N(c3ccccc3)c3ccc(C(C)(C)C)cc3)c3ccc4c(N(c5ccccc5)c5ccc(C(C)(C)C)cc5)cc(N(c5ccccc5)c5ccc(C(C)(C)C)cc5)c5ccc2c3c54)cc1 [Compound 21]	>3 g	40000 L/mol	large red shift	Absorption peak of the toluene solution [2]: 469 nm; Emission peak of the toluene solution [2]: 495 nm; Absorption peak of the film [3]: 472 nm; Emission peak of the film [3]: 546 nm
CCCCCCCCc1ccc(-c2cc(N(c3ccc(C(C)(C)C)cc3)c3ccc(C(C)(C)C)cc3)ccc2N(c2cc(F)c(F)c(F)c2)c2cc(N(c3cc(F)c(F)c(F)c3)c3ccc(N(c4ccc(C(C)(C)C)cc4)c4ccc(C(C)(C)C)cc4)cc3-c3ccc(CCCCCCCC)cc3)c3ccc4c(N(c5cc(F)c(F)c(F)c5)c5ccc(N(c6ccc(C(C)(C)C)cc6)c6ccc(C(C)(C)C)cc6)cc5-c5ccc(CCCCCCCC)cc5)cc(N(c5cc(F)c(F)c(F)c5)c5ccc(N(c6ccc(C(C)(C)C)cc6)c6ccc(C(C)(C)C)cc6)cc5-c5ccc(CCCCCCCC)cc5)c5ccc2c3c54)cc1 [Compound 25]	>10 g	51000 L/mol	very small red shift	–
CC(C)(C)c1ccc2c(c1)c1cc(C(C)(C)C)cc3c1n2-c1cccc2c1B3c1cc3c4ccccc4c4ccccc4c3c3c4c5c6ccccc6c6ccccc6c5ccc4n-2c13 [Compound E2, reference compound]	>0.7 g	48000 L/mol	–	–
CC(C)(C)c1ccc2c(c1)B1c3c(c4c5c(c3-n3c6ccc(C(C)(C)C)cc6c6cc(C(C)(C)C)cc1c63)Oc1ccc(C(C)(C)C)cc1B5c1cc(C(C)(C)C)cc3c5cc(C(C)(C)C)ccc5n-4c13)O2 [Compound E4, reference compound]	>0.7 g	27000 L/mol	–	Absorption peak of the toluene solution [2]: 589 nm; Emission peak of the toluene solution [2]: 613 nm
